Results taken from patent publication US12414979B2, “Compositions and methods for treating Sjogren's syndrome” (Interlude Biopharma Co., priority 2019, dated 2025).
No end group written: not given here.

Test system: PAR-C10 cells
Experiment: Trans-epithelial electrical resistance (TEER) assay of tight junction integrity in PAR-C10 monolayers treated with IFNγ and TNFα
Assay type: cell-based, rat
Conditions: for prevention of cytokine-induced drop in TEER: co-incubation with IFNγ and TNFα, larazotide acetate 1 mM and 5 mM, other compounds 5 mM and 10 mM, FIG. 1-3
Source text: Specifically, an in vitro assay system to measure tight junction integrity was established using PAR-C10 cells, an immortalized rat acinar epithelial cell line, which mimic the biochemical and functional characteristics of primary salivary gland acinar cells. PAR-C10 cells form a monolayer of cuboidal cells, and are attached to each other with well-formed junctional complexes. PAR-C10 cells have been used to model the effect of inflammatory cytokines on tight junctions in vitro. Quissell et al., (1998) In Vitro Cell. Dev. Biol. Anim. 34: 58-67; Baker et al., Am. J. Cell Physiol. 295:C1191-1201. The cells were seeded on permeable supports in 12 well plates and cultured to form monolayers. The trans-epithelial electrical resistance (TEER) across the epithelial monolayer was measured to evaluate formation of tight junction between the cells. Three ng/ml of each pro-inflammatory cytokines, interferon gamma (IFNγ) and tumor necrosis factor alpha (TNFα) were added to the monolayers and incubated for 24 hours in order to cause tight junction disruption. Larazotide acetate (1 mM and 5 mM) or any one of 4-Aminosalicylic acid (4-ASA), 4-Amino-phenyl-acetic acid (4-APAA), and 4-Acetyl amino-phenyl-acetic acid (4-Ac APAA) (5 or 10 mM) of was added to the apical surface and the cells allowed to grow for an additional 24 hours. The compounds were dissolved in dimethyl sulfoxide and added to the culture media to obtain a final concentration of 5 mM and 10 mM each.
TEER measurements were used to determine the effect of larazotide acetate (1 or 5 mM) and other anti-inflammatory compounds (4-Aminosalicylic acid (4-ASA), 4-Amino-phenyl-acetic acid (4-APAA), and 4-Acetyl amino-phenyl-acetic acid (4-Ac APAA)) (5 or 10 mM) on tight junctions, in the presence of cytokines. To determine a therapeutic effect, the cells were pre-treated with cytokines, and the ability of larazotide acetate (1 or 5 mM) or 4-ASA, 4-APAA, and 4-Ac APAA (each at 5 or 10 mM) to reverse junctional disruption was evaluated. Wells not treated with cytokines were used as controls. p values were determined by Kruskal Wallis tests, and adjusted p values were determined by Dunns post test.

## CC(=O)Nc1ccc(CC(=O)O)cc1 [4-Acetyl amino-phenyl-acetic acid, (4-acetylaminophenyl)-acetic acid, reference compound]
  prevention of cytokine-induced drop in TEER: significantly prevent a drop in TEER

## Nc1ccc(CC(=O)O)cc1 [4-Amino-phenyl-acetic acid, 4-aminophenylacetic acid]
  prevention of cytokine-induced drop in TEER: significantly prevent a drop in TEER

## Nc1ccc(C(=O)O)c(O)c1 [4-Aminosalicylic acid, reference compound]
  prevention of cytokine-induced drop in TEER: significantly prevent a drop in TEER

## GGVLVQPG [larazotide acetate]
5 mM concentration, 2 independent experiments, FIG. 2
  prevention of cytokine induced disruption of tight junctions (TEER): can reproducibly prevent cytokine induced disruption of tight junctions
  prevention of cytokine-induced drop in TEER: significantly prevent a drop in TEER
Monolayers incubated with IFNγ and TNFα for 24 hours, then larazotide acetate (1 mM and 5 mM) on apical surface for additional 24 hours, FIG. 4
  reversal of cytokine-mediated drop in TEER: able to reverse the cytokine-mediated drop in TEER
